Data: patent US20240383915A1, “OXAZEPINE COMPOUNDS AND USES THEREOF IN THE TREATMENT OF CANCER” (Genentech, Inc., priority 2021, published 2024)

Experiments:
[1] = target: KRas(G12V) (Homo sapiens (Human), UniProt P01116, G12V); assay: KRas(G12V) GDP HTRF (BODIPY-GDP exchange TR-FRET); type: biochemical
[2] = target: KRas (Homo sapiens (Human), UniProt P01116); assay: KRas GDP HTRF (BODIPY-GDP exchange TR-FRET); type: biochemical
Protocol: KRAS Biochemical Assay—BODIPY-GDP Exchange TR-FRET. Biochemical compound potencies were assessed by evaluating inhibition of SOS1-mediated nucleotide exchange in KRAS G12D. The SOS1-promoted exchange of fluorescently-labeled GDP (BODIPY-GDP) was monitored by time-resolved fluorescence resonance energy transfer (TR-FRET). Compounds solubilized in DMSO were dispensed as concentration series into 384-well white assay plates. […] The reaction was initiated with the addition of 5 μL of 3 nM recombinant human SOS1 and 300 nM BODIPY-GDP in assay buffer. After a 60-minute incubation, the fluorescence was measured with excitation at 337 nm and emission at 490 and 520 nm. The TR-FRET ratio was determined as the fluorescence at 520 nm divided by the fluorescence at 490 nm multiplied by 10,000. […] The normalized TR-FRET results were plotted against compound concentration, and the data fit to a 4-parameter Hill equation to determine the IC50 values.

Chain of KRas (P01116-2 other isoform, or with tags, fused parts or gaps): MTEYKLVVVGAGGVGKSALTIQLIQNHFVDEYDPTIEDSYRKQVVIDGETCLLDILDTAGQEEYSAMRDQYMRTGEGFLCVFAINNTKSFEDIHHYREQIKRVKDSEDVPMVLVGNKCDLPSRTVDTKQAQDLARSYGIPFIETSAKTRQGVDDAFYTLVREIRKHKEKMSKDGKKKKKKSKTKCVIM
Chain of KRas(G12V) (P01116-2 other isoform, or with tags, fused parts or gaps G12V): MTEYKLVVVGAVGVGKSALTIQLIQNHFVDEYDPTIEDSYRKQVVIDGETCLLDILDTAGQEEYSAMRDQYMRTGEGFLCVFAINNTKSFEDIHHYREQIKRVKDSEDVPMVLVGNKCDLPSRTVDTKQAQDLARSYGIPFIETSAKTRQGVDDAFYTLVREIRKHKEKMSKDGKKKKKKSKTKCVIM

| Compound | IC50 [1] [nM] | IC50 [2] [nM] |
| --- | --- | --- |
| Cc1cc(N)nc(-c2c(Cl)c3c4c(nc(OC(C)(C)[C@@H]5CC(F)(F)CN5C)nc4c2F)N([C@H](C)c2cccnc2N)CCO3)c1C(F)(F)F (atropisomer, axis not shown) [Example 72, 6-((R)-4-((R)-1-(2-aminopyridin-3-yl)ethyl)-8-chloro-2-((2-((S)-4,4-difluoro-1-methylpyrrolidin-2-yl)propan-2-yl)oxy)-10-fluoro-5,6-dihydro-4H-[1,4]oxazepino[5,6,7-de]quinazolin-9-yl)-4-methyl-5-(trifluoromethyl)pyridin-2-amine] | 12 | 143 |
| Cc1cc(N)nc(-c2c(Cl)c3c4c(nc(OCC56C[C@H](F)CN5C[C@H](F)C6)nc4c2F)N([C@H](C)c2cccnc2N)CCO3)c1C(F)(F)F (stereo partly drawn) [Example 98b, 6-((9R)-4-((R)-1-(2-aminopyridin-3-yl)ethyl)-8-chloro-2-(((2R,6S)-2,6-difluorotetrahydro-1H-pyrrolizin-7a(5H)-yl)methoxy)-10-fluoro-5,6-dihydro-4H-[1,4]oxazepino[5,6,7-de]quinazolin-9-yl)-4-methyl-5-(trifluoromethyl)pyridin-2-amine] | 0.1 | 0.125 |
| Cc1cc(N)nc(-c2cc3ncnc4c3c(c2Cl)OCCN4Cc2cnc[nH]2)c1C(F)(F)F [Example 30, 6-(4-((1H-imidazol-5-yl)methyl)-8-chloro-5,6-dihydro-4H-[1,4]oxazepino[5,6,7-de]quinazolin-9-yl)-4-methyl-5-(trifluoromethyl)pyridin-2-amine] | 4700 | 35000 |
| CNc1cnc(N)c([C@@H](C)N2CCOc3c(Cl)c(-c4nc(N)cc(C)c4C(F)(F)F)cc4ncnc2c34)c1 [Example 58, (R)-3-(1-(9-(6-amino-4-methyl-3-(trifluoromethyl)pyridin-2-yl)-8-chloro-5,6-dihydro-4H-[1,4]oxazepino[5,6,7-de]quinazolin-4-yl)ethyl)-N5-methylpyridine-2,5-diamine] | 18 | 34 |
| Cc1cc(N)nc(-c2c(Cl)c3c4c(nc(OC[C@@H]5C[C@@]6(CN5C)CC6(F)F)nc4c2F)N([C@H](C)c2nccnc2N)CCO3)c1C(F)(F)F (atropisomer, axis not shown) [Example 171b, 3-((R)-1-((S)-9-(6-amino-4-methyl-3-(trifluoromethyl)pyridin-2-yl)-8-chloro-2-(((3S,6S)-1,1-difluoro-5-methyl-5-azaspiro[2.4]heptan-6-yl)methoxy)-10-fluoro-5,6-dihydro-4H-[1,4]oxazepino[5,6,7-de]quinazolin-4-yl)ethyl)pyrazin-2-amine] | 900 | 2090 |
| CSc1cncc(CN2CCOc3c(Cl)c(-c4nc(N)cc(C)c4C(F)(F)F)cc4ncnc2c34)c1 [Example 29, 6-(8-chloro-4-((5-(methylthio)pyridin-3-yl)methyl)-5,6-dihydro-4H-[1,4]oxazepino[5,6,7-de]quinazolin-9-yl)-4-methyl-5-(trifluoromethyl)pyridin-2-amine] | 7400 | 7400 |
| Cc1cc(N)nc(-c2c(Cl)c3c4c(nc(OC[C@@]56CCCN5CC(F)(F)C6)nc4c2F)N([C@H](C)c2nccnc2N)CCO3)c1C(F)(F)F (atropisomer, axis not shown) [Example 165a, 3-((R)-1-((R)-9-(6-amino-4-methyl-3-(trifluoromethyl)pyridin-2-yl)-8-chloro-2-(((S)-2,2-difluorotetrahydro-1H-pyrrolizin-7a(5H)-yl)methoxy)-10-fluoro-5,6-dihydro-4H-[1,4]oxazepino[5,6,7-de]quinazolin-4-yl)ethyl)pyrazin-2-amine] | 0.69 | 2.14 |
| Cc1cc(N)nc(-c2c(Cl)c3c4c(nc(OC[C@@]56CCCN5CC(F)(F)C6)nc4c2F)N([C@H](C)c2nccnc2N)CCO3)c1C(F)(F)F (atropisomer, axis not shown) [Example 165b, 3-((R)-1-((S)-9-(6-amino-4-methyl-3-(trifluoromethyl)pyridin-2-yl)-8-chloro-2-(((S)-2,2-difluorotetrahydro-1H-pyrrolizin-7a(5H)-yl)methoxy)-10-fluoro-5,6-dihydro-4H-[1,4]oxazepino[5,6,7-de]quinazolin-4-yl)ethyl)pyrazin-2-amine] | 890 | 2000 |
| Cc1cc(N)nc(-c2c(Cl)c3c4c(nc(OCCN5C6CCC5CN(C)C6)nc4c2F)N([C@H](C)c2cccnc2N)CCO3)c1C(F)(F)F [Example 94, 6-((9R)-4-((R)-1-(2-aminopyridin-3-yl)ethyl)-8-chloro-10-fluoro-2-(2-(3-methyl-3,8-diazabicyclo[3.2.1]octan-8-yl)ethoxy)-5,6-dihydro-4H-[1,4]oxazepino[5,6,7-de]quinazolin-9-yl)-4-methyl-5-(trifluoromethyl)pyridin-2-amine] | 0.07 | 0.175 |
| Cc1cc(N)nc(-c2c(Cl)c3c4c(nc(OC[C@@]56CCN5CC(F)(F)C6)nc4c2F)N([C@H](C)c2nccnc2N)CCO3)c1C(F)(F)F (single isomer, unassigned) [Example 162c] | 370 | 830 |
| C[C@H](c1cccnc1N)N1CCOc2c(Cl)c(-c3cccc4sc(N)nc34)c(F)c3nc(OC[C@@]45CCCN4C[C@H](F)C5)nc1c23 (atropisomer, axis not shown; (aS)) [Example 100b, 4-((S)-4-((R)-1-(2-aminopyridin-3-yl)ethyl)-8-chloro-10-fluoro-2-(((2R,7aS)-2-fluorotetrahydro-1H-pyrrolizin-7a(5H)-yl)methoxy)-5,6-dihydro-4H-[1,4]oxazepino[5,6,7-de]quinazolin-9-yl)benzo[d]thiazol-2-amine] | 0.73 | 0.353 |
| CN1CCOc2c(Cl)c(-c3c(F)ccc4cnn(C)c34)cc3nc(OC[C@@]45CCCN4C[C@H](F)C5)nc1c23 [Example 8, 8-chloro-9-(6-fluoro-1-methyl-1H-indazol-7-yl)-2-(((2R,7aS)-2-fluorotetrahydro-1H-pyrrolizin-7a(5H)-yl)methoxy)-4-methyl-5,6-dihydro-4H-[1,4]oxazepino[5,6,7-de]quinazoline] | 810 | 3900 |
| Cc1cc(N)nc(-c2cc3nc(OC[C@@]45CCCN4CC(F)(F)C5)nc4c3c(c2Cl)OCCN4C)c1C(F)(F)F [Example 10, (S)-6-(8-chloro-2-((2,2-difluorotetrahydro-1H-pyrrolizin-7a(5H)-yl)methoxy)-4-methyl-5,6-dihydro-4H-[1,4]oxazepino[5,6,7-de]quinazolin-9-yl)-4-methyl-5-(trifluoromethyl)pyridin-2-amine] | 300 | 1300 |
| Cc1cc(N)nc(-c2c(Cl)c3c4c(nc(OC(C)[C@@H]5CC(F)(F)CN5C)nc4c2F)N([C@H](C)c2cccnc2N)CCO3)c1C(F)(F)F (stereo partly drawn) [Example 71, 6-((R)-4-((R)-1-(2-aminopyridin-3-yl)ethyl)-8-chloro-2-((S)-1-((S)-4,4-difluoro-1-methylpyrrolidin-2-yl)ethoxy)-10-fluoro-5,6-dihydro-4H-[1,4]oxazepino[5,6,7-de]quinazolin-9-yl)-4-methyl-5-(trifluoromethyl)pyridin-2-amine] | 0.53 | 6.61 |
| Cc1cc(N)nc(-c2c(Cl)c3c4c(nc(OC[C@@H]5CC[C@H]6COCCN65)nc4c2F)N([C@H](C)c2ccnnc2N)CCO3)c1C(F)(F)F (atropisomer, axis not shown; (aS)) [Example 175, 4-((R)-1-((R)-9-(6-amino-4-methyl-3-(trifluoromethyl)pyridin-2-yl)-8-chloro-10-fluoro-2-(((6S,8aS)-hexahydro-1H-pyrrolo[2,1-c][1,4]oxazin-6-yl)methoxy)-5,6-dihydro-4H-[1,4]oxazepino[5,6,7-de]quinazolin-4-yl)ethyl)pyridazin-3-amine] | 0.08 | 0.1 |
| Cc1cc(N)nc(-c2c(Cl)c3c4c(nc(OC[C@@H]5CC[C@H]6CO[C@H](C)CN56)nc4c2F)N([C@H](C)c2cccnc2N)CCO3)c1C(F)(F)F (atropisomer, axis not shown; (aS)) [Example 93c, 6-((R)-4-((R)-1-(2-aminopyridin-3-yl)ethyl)-8-chloro-10-fluoro-2-(((3R,6S,8aS)-3-methylhexahydro-1H-pyrrolo[2,1-c][1,4]oxazin-6-yl)methoxy)-5,6-dihydro-4H-[1,4]oxazepino[5,6,7-de]quinazolin-9-yl)-4-methyl-5-(trifluoromethyl)pyridin-2-amine] | 0.07 | 0.145 |
| Cc1cc(N)nc(-c2c(Cl)c3c4c(nc(OC[C@@H]5COCCN5)nc4c2F)N([C@H](C)c2cccnc2N)CCO3)c1C(F)(F)F (atropisomer, axis not shown) [Example 96, 6-((R)-4-((R)-1-(2-aminopyridin-3-yl)ethyl)-8-chloro-10-fluoro-2-(((S)-morpholin-3-yl)methoxy)-5,6-dihydro-4H-[1,4]oxazepino[5,6,7-de]quinazolin-9-yl)-4-methyl-5-(trifluoromethyl)pyridin-2-amine] | 0.08 | 0.299 |
| C[C@H](c1cccnc1N)N1CCOc2c(Cl)c(-c3cccc4sc(N)nc34)c(F)c3nc(OC[C@@]45CCCN4C[C@H](F)C5)nc1c23 (atropisomer, axis not shown; (aS)) [Example 100a, 4-((R)-4-((R)-1-(2-aminopyridin-3-yl)ethyl)-8-chloro-10-fluoro-2-(((2R,7aS)-2-fluorotetrahydro-1H-pyrrolizin-7a(5H)-yl)methoxy)-5,6-dihydro-4H-[1,4]oxazepino[5,6,7-de]quinazolin-9-yl)benzo[d]thiazol-2-amine] | 0.03 | 0.03 |
